The values below come from US20220235136A1, “METHODS AND COMPOSITIONS FOR TREATING A DISEASE OR DISORDER” (YALE UNIVERSITY, priority 2019, published 2022).

In assay [1] the test system is B16 melanoma. Nature of the assay: subcutaneous B16 melanoma mouse tumor model. Particulars: alone or combination.
Method: For B16 tumor model, C57BL/6 mice were inoculated subcutaneously with B16 melanoma at 2×1^5 per mouse. […] CD93 mAb (300 μg i.p.) treatment was administrated on the day of randomization (day 0), day 4 and day 9. 5-FU (3.5 mg i.p.) was administrated on day 2 and day 7. Measurements of tumor size were taken every 2 or 3 days. When tumor volume was exceeding 2000 mm^3 and/or ulceration formed, tumor bearing mice were considered as death for the calculation of survival curve.
The test system of assay [2] is HUVEC cells. Nature of the assay: HUVEC tube formation and transwell migration assay with exogenous IGFBP7 protein. It is filed as cell-based, human. As to the method: Pooled human umbilical vein ECs (HUVEC) purchased from Thermo Fisher were cultured in Medium 200 with LVES (Life Technologies). C57BL/6 mouse primary aortic ECs and the endothelium culture medium with supplement were purchased from Cell Biologics. For tube formation, HUVECs at 2×10^4 cells/ml were plated on Matrigel in 24-well plate. Image was recorded even 4-6 hours after incubation. The Transwell 6.5 mm polycarbonate membrane inserts pre-loaded in 24-well culture plates (Corning 3422, 8 um) were used in the cell migration model. HUVEC cells at 1×10^5/ml in 200 μl were loaded into each 24-well insert with 500 μl IBS-containing medium with different reagents in the lower chamber. After approximately 20 hours, the migrated cells were fixed with methanol, stained with Giemsa solution and counted under a light microscope.

Assay [3] addresses T1, CD93 (Homo sapiens, UniProt Q9NPY3).
T1 construct: expressed in transfected cells; host or cells: 293 cells (CD93+ 293)
T1 sequence (Q9NPY3 22-652): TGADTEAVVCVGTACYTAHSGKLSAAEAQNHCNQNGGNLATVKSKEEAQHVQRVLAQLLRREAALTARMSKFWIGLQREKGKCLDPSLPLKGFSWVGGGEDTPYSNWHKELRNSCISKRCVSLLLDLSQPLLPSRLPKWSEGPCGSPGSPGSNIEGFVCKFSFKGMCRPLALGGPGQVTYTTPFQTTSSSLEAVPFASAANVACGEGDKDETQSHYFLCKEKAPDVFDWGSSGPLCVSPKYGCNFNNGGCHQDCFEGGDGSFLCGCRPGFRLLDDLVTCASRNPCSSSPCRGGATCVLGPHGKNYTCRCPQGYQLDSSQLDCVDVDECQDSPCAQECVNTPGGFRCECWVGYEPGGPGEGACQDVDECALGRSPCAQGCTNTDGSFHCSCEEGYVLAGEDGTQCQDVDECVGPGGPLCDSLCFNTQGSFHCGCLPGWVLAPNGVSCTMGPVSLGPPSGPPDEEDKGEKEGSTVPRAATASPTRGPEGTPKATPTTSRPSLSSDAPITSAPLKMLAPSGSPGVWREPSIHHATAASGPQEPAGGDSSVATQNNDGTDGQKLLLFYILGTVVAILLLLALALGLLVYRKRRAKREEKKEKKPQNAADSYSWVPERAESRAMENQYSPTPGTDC
Kind of assay: binding of Ig fusion proteins to CD93 transfectant (flow cytometry). The text has this: FIGS. 10A-10B show identification of the binding domain on IGFBP7 for CD93. Each extracellular domain for IGFBP7, including insulin binding (IB). Kazal, and Ig, was swapped with the corresponding domain on IGFBPL1 using PCR cloning and fused to a C-terminal Ig. These chimeric mutants were transiently expressed in HEK293T cells and supernatants were used to stain CD93 transfectant. FIG. 10A depicts whether multiple chimeric IGFBP7 mutants bind to CD93. FIG. 10B depicts various human genes containing IB-domain constructed onto an expression vector containing Fc-Tag. Constructs were transiently transduced into HEK293T cells to produce Fc tagged fusion proteins in the supernatant. Supernatant was used to stain CD93 transfectant by flow cytometry. Binding index represents the ratio of binding MFI of CD93 transfectant to control cells.
The IGFBP7-IGFBPL1 chimeras were generated by two-step PCR. […]
Cell surface and intercellular staining and analysis by flow cytometry were followed the protocol previously described (71). Dead cells were excluded with SYTOX® (Blue Dead Cell Stain Kit (Thermo Fisher Scientific). Flow cytometric analysis was conducted with a BD FACS Calibur or a BD LSRFortessa™ cell analyzer (BD Bioscience, Franklin Lakes, N.J. USA), and then data were analyzed by FlowJo software (Tree Star Inc.)
(In general: A flow cytometer gives signals particle by particle.)

Assay [4] deals with T2, CD93 binding by MMRN2 (Homo sapiens, UniProt Q9NPY3).
T2 construct: expressed in transfected cells
T2 sequence (Q9NPY3 22-652): T1 sequence (Q9NPY3 22-652)
T2 sequence (Q9H8L6 23-949 partner): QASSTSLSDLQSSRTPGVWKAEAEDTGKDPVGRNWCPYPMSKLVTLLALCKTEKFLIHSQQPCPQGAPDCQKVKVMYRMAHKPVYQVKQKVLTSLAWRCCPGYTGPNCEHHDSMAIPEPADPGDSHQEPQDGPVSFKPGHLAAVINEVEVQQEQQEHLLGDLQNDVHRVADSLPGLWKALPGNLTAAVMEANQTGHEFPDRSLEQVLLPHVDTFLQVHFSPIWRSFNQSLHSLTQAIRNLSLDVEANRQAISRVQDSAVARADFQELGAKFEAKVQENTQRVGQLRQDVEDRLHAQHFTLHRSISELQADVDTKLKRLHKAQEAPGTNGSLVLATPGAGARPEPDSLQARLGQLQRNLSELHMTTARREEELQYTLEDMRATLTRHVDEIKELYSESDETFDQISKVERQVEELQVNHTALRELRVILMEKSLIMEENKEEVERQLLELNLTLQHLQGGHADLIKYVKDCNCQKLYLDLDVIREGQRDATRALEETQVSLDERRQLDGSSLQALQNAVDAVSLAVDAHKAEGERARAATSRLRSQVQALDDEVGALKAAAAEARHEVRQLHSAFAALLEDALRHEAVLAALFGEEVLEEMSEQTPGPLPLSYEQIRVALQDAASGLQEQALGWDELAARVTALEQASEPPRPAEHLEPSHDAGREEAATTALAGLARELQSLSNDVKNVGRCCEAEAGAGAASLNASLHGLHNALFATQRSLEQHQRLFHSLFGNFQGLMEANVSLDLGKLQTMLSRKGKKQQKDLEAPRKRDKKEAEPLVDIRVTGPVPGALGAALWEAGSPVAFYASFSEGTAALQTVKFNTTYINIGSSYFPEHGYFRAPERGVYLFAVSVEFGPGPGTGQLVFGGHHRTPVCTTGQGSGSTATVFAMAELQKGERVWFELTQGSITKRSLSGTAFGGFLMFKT
Nature of the assay: MMRN2-Ig binding to CD93-expressing CHO cells in the presence of IGFBP7-His. Particulars: IGFBP7 added. As to the method: In FIG. 28A, binding of HEK293 T cells transfected to express group 14 C-type lectin molecules were stained for the binding of IGFBP7-Ig and MMRN2-Ig. In FIG. 28B. CHO cells stably expressing CD93 were stained with control or MMRN2-Ig, with or without the presence of IGFBP7-His protein. In FIG. 28C, well coated with IGFBP7-His protein were incubated with CD93-His protein before examining for MMRN2-Ig binding by ELISA. Wells coated with CD93-His protein were used as a positive control. In FIG. 28D. HEK293T cells transfected with control or CD93 construct were stained with MMRN-Ig for binding, with or without the presence of anti-mCD93 (7C10). In FIG. 28E HEK293T cells transfected to express different mouse CD93 mutants were stained with anti-CD93 (7C10), IGFBP7-Ig, and MMRN2-Ig.

Assay [5] concerns the target T3, human IGF1R (Homo sapiens, UniProt P08069).
T3 construct: expressed in transfected cells; host or cells: CHO
Kind of assay: IGFBP7-Ig binding to IGF1R transfected CHO cells (flow cytometry). Here is the method:
Wild type CHO and IGF1R transfected CHO cells were stained for human IGF1R staining antibody to confirm surface IGF1R expression. At the same time, cells were incubated with IGFBP7-Ig for possible interaction by flow cytometry analysis, […]

Assay [6] has as its system IGFBP7 expression in tumor endothelial cells. Particulars: 24 hours after treatment; published RNA-Seq data; cited from earlier work.

T3 sequence (P08069 31-736 limits assumed): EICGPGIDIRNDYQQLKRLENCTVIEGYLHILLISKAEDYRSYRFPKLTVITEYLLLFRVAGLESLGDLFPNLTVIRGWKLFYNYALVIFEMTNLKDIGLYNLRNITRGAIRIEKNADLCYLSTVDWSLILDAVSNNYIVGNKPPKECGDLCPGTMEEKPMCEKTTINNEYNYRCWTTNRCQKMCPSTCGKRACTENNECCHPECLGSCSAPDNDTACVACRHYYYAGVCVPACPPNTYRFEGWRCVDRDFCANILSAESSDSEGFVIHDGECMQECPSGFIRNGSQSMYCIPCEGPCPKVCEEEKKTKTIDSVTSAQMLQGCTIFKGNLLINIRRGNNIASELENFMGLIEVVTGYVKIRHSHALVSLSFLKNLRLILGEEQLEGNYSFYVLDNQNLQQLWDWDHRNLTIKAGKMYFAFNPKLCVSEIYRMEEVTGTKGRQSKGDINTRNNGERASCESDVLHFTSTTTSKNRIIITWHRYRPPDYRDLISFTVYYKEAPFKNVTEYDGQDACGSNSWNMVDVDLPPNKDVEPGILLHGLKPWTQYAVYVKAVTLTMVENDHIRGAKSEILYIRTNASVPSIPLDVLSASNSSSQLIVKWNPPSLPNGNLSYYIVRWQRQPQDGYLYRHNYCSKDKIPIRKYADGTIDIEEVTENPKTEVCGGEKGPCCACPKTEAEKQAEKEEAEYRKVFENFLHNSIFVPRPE
T3 sequence (P08069 741-1367 limits assumed): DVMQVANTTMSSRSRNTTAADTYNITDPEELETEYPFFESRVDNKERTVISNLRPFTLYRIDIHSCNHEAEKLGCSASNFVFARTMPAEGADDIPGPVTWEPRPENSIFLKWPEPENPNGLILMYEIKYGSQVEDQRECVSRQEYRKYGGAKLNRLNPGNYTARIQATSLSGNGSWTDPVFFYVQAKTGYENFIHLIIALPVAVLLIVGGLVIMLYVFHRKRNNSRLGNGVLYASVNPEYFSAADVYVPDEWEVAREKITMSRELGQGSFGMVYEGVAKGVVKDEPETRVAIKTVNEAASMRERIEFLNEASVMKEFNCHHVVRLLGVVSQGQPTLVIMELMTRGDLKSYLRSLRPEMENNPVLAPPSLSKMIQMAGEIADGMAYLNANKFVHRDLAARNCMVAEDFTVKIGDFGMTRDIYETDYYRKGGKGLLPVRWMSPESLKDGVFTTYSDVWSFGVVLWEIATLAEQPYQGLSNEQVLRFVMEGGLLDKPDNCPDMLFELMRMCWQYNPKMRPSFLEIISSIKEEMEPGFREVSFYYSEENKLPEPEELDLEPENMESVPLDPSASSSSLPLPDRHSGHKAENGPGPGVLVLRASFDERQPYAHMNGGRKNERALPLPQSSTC

Regarding `O=c1[nH]cc(F)c(=O)[nH]1` [5-FU, 5-fluorouracil], the B16 tumor growth result in assay [1] is listed as “modestly inhibited”.
Take “IGFBP7: a secreted protein of the insulin growth factor binding protein (IGFBP) family; recombinant protein / Fc fusion”: the “tube formation or EC migration in CD93 knockdown HUVEC cells” value in assay [2] (CD93 siRNA) is reported as “lost its effect”. The “tube formation and proliferation of wild type HUVEC cells” value in assay [2] (exogenous protein added) is recorded as “increased”. Also, the “binding to CD93 293 cells / CD93 transfectant” value in assay [3] (flow cytometry) was “strongly”. The “binding to group 14 C-type lectin molecules” value in assay [3] (transfected HEK293T cells) is “only bound to CD93”. Further, the “effect on the CD93 binding by MMRN2” value in assay [4] was “did not interfere”. Further, the “binding to human IGF1R transfectant” value in assay [5] was “fails to bind”.
With aflibercept: a VEGF inhibitor, the “IGFBP7 in tumor ECs” value in assay [6] is “significantly inhibited”.
